Biological target: T1, caspase-3(D9A,D28A) (Homo sapiens, UniProt P42574, D28A/D9A)
T1 sequence (P42574 1-175 D9A/D28A limits assumed): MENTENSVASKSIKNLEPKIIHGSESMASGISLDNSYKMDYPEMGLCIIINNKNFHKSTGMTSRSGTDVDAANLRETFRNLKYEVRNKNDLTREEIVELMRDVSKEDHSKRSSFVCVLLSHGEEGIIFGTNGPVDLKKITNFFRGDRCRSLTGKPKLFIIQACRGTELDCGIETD
T1 sequence (P42574 176-277 limits assumed): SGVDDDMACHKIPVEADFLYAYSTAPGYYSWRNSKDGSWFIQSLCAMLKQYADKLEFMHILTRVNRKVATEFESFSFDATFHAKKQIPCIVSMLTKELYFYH
Experiment: isothermal titration calorimetry
Type: binding

Kd: ~4 µM
SMILES: CCN(CC)S(=O)(=O)c1ccc(-c2ccc(S(=O)(=O)N(CC)CC)s2)s1 [compound 42, N2,N2-diethyl-5-{5-[(diethylamino)sulfonyl]-2-thienyl}thiophene-2-sulfonamide]

Source: publication PMC3166964 (Biophysical chemistry, 2011)
